This note sets out measurements from ChEMBL document CHEMBL1909046, “DrugMatrix in vitro pharmacology data”.

The target in one test is Melanocortin receptor 3 (Homo sapiens, UniProt P41968). The test is classed as cell membranes, Membrane. Conditions: hek293. Also: in other assays of this panel Not Active means under 50% inhibition at 10 µM.
The nature of test [1]: DRUGMATRIX: Calcium Channel Type L, Benzothiazepine radioligand binding (ligand: [3H] Diltiazem). Type of test: cell membranes, Rattus norvegicus, Wistar, Brain, Membrane. The settings on record: Not Active = under 50% inhibition at 10 µM.
Test [2] has as its target Prostaglandin G/H synthase 1 (Homo sapiens, UniProt P23219). Description: biochemical. The test is classed as tissue-based, Platelet. The settings on record: platelet.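 Also: inhibition of COX-1 enzyme activity, with arachidonic acid supplied as substrate; in other assays of this panel Not Active means under 50% inhibition at 10 µM.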
The target in test [3] is Beta-1 adrenergic receptor (Homo sapiens, UniProt P08588). The test is described as follows: DRUGMATRIX: Adrenergic beta1 radioligand binding (ligand: [125I] Cyanopindolol). The test is classed as cell membranes, CHO-K1, Membrane. The settings on record: cho-k1; Not Active = under 50% inhibition at 10 µM.
Sequence of Beta-1 adrenergic receptor (P08588 whole entry): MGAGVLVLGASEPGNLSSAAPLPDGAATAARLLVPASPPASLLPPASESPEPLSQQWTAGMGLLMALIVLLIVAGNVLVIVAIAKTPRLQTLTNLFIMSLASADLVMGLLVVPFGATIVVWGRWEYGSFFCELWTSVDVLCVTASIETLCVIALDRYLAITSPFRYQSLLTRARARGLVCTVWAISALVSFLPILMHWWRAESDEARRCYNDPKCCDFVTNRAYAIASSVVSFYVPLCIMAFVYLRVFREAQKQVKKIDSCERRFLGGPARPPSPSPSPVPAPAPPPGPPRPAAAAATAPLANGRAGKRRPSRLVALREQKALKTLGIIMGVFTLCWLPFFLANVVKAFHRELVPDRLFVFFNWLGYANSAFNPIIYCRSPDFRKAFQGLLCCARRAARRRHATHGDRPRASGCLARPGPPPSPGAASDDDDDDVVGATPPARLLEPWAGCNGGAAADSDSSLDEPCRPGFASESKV
Test [4] has as its target T1, Neuropeptide Y receptor type 1 (Homo sapiens, UniProt P25929). Also: in other assays of this panel Not Active means under 50% inhibition at 10 µM.
T1 sequence (P25929 whole entry): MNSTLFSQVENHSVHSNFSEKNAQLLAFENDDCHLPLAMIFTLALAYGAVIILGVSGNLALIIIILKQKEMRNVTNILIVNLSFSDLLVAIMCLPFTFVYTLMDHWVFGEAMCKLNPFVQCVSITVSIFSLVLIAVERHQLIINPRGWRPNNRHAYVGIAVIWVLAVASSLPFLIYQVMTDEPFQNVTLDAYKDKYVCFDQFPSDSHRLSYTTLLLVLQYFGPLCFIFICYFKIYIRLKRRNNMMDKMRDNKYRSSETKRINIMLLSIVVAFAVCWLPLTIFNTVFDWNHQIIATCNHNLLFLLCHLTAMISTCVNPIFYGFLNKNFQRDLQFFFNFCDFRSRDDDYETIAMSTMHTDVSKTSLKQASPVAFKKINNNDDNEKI
The test is classed as cell membranes, Membrane. Conditions: sk-n-mc.

The target of test [5] is C-C chemokine receptor type 2 (Homo sapiens, UniProt P41597). Type of test: cell membranes, Membrane. Conditions: cho-k1. Also: in other assays of this panel Not Active means under 50% inhibition at 10 µM.
Sequence of C-C chemokine receptor type 2 (P41597 whole entry): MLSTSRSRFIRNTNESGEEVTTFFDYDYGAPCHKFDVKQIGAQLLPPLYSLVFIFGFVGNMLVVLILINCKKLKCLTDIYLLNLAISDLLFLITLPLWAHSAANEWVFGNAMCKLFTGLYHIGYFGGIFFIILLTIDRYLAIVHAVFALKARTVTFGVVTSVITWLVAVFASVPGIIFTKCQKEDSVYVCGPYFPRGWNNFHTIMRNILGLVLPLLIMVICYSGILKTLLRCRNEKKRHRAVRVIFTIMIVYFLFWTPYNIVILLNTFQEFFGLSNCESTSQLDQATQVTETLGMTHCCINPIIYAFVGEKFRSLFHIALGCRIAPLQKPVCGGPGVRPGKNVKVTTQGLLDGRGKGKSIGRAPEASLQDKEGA

As usually defined, the IC50 is the concentration at which inhibition is half-maximal. Broadly, the Ki is a dissociation constant, usually derived from enzyme kinetics or from competition with a known ligand.

Sequence of Prostaglandin G/H synthase 1 (P23219 whole entry): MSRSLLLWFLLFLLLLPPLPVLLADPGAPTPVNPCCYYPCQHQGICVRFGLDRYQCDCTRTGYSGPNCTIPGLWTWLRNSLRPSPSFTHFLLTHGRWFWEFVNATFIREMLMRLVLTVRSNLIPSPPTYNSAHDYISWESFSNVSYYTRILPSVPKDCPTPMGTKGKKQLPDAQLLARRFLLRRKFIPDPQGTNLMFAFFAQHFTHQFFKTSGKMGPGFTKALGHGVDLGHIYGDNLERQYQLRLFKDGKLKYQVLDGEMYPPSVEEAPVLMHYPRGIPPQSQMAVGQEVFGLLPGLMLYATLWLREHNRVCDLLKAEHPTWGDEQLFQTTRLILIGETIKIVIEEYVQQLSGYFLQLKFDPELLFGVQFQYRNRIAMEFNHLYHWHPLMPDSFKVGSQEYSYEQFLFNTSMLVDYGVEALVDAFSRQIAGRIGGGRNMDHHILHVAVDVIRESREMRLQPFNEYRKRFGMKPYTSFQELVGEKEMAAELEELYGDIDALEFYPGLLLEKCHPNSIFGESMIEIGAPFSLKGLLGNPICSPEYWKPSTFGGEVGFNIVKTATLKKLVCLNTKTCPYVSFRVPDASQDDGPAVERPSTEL
Sequence of Melanocortin receptor 3 (P41968 whole entry): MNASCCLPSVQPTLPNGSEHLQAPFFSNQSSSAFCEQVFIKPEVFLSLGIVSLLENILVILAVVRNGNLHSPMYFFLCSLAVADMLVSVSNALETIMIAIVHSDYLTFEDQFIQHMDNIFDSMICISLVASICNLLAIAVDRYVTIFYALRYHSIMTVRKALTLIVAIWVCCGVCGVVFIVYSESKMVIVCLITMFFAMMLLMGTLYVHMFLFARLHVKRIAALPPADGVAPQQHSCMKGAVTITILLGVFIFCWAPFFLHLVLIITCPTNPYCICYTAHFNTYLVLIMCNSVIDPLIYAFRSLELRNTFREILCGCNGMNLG

For `N=C(N)c1ccc(OCCCCCOc2ccc(C(=N)N)cc2)cc1` [PENTAMIDINE], the IC50 entry at Melanocortin receptor 3 was “Not Active”; in test [1] (read-out: IC50), 2210 nM; in test [2], “Not Active”; in test [3], “Not Active”; in test [4] it was “Not Active”; in test [5] it was “Not Active”. The Ki in test [1] (read-out: Ki) turned out to be 1960 nM.

For the molecule `NNCCc1ccccc1` [PHENELZINE], the IC50 entry (against Melanocortin receptor 3; in test [1]; in test [2]; in test [3]; in test [4]; in test [5]) was “Not Active” throughout. Moreover, in test [1], the Ki entry was “Not Active”.

Turning to `CCc1ccc(CCOc2ccc(CC3SC(=O)NC3=O)cc2)nc1` (configuration not stated) [PIOGLITAZONE], the IC50 entry (against Melanocortin receptor 3; in test [1]; in test [2]; in test [3]; in test [4]; in test [5]) was “Not Active” each time. Moreover, in test [1], the Ki result was “Not Active”.

For `CCCNC(C)C(=O)Nc1ccccc1C` (configuration not stated) [PRILOCAINE], the half-maximal inhibitory concentration (IC50) entry (against Melanocortin receptor 3; in test [1]; in test [2]; in test [3]; in test [4]; in test [5]) was “Not Active” each time. Besides, the inhibition constant Ki result in test [1] is “Not Active”.

Take `CCN(CC)CCNC(=O)c1ccc(N)cc1` [PROCAINAMIDE]: the concentration for half-maximal inhibition (IC50) result (against Melanocortin receptor 3; in test [1]; in test [2]; in test [3]; in test [4]; in test [5]) was “Not Active” each time. In test [1], the inhibition constant Ki entry is “Not Active”.

As to `CCN(CC)CCCC(C)Nc1c2ccc(Cl)cc2nc2ccc(OC)cc12` (configuration not stated) [QUINACRINE], the half-maximal inhibitory concentration (IC50) entry at Melanocortin receptor 3 was “Not Active”; in test [1] (read-out: IC50) it was 1080 nM; in test [2], “Not Active”; in test [3] it was “Not Active”; in test [4], “Not Active”; in test [5], “Not Active”. Moreover, in test [1] (read-out: Ki), the inhibition constant Ki came to 956 nM.

`C[C@]12C=CC(=O)C=C1CC[C@H]1[C@@H]3C[C@@H](O)[C@](O)(C(=O)CO)[C@@]3(C)C[C@H](O)[C@@]12F` [TRIAMCINOLONE]: the IC50 entry (against Melanocortin receptor 3; in test [1]; in test [2]; in test [3]; in test [4]; in test [5]) was “Not Active” each time. The inhibitory constant (Ki) result in test [1] is “Not Active”.

Take `CC[C@]1(O)C[C@@H]2CN(CCc3c([nH]c4ccccc34)[C@@](C(=O)OC)(c3cc4c(cc3OC)N(C)[C@H]3[C@@](O)(C(N)=O)[C@H](O)[C@]5(CC)C=CCN6CC[C@]43[C@@H]65)C2)C1` [VINDESINE]: the half-inhibitory concentration (IC50) result (at Melanocortin receptor 3; in test [1]; in test [2]; in test [3]; in test [4]; in test [5]) was “Not Active” throughout. Further, the inhibitory constant (Ki) entry in test [1] is on record as “Not Active”.

Take `CCN(C(C)=O)c1cccc(-c2ccnc3c(C#N)cnn23)c1` [ZALEPLON]: the IC50 result (at Melanocortin receptor 3; in test [1]; in test [2]; in test [3]; in test [4]; in test [5]) was “Not Active” in each case. For the same molecule, the Ki result in test [1] is listed as “Not Active”.

Consider COBALTOUS CHLORIDE, for which the IC50 result (at Melanocortin receptor 3; in test [1]; in test [2]; in test [3]; in test [4]; in test [5]) was “Not Active” throughout. Besides, the Ki entry (on Melanocortin receptor 3; in test [1]; in test [2]; in test [3]; in test [4]; in test [5]) was “Not Active” in each case.

For COLISTIN, the half-maximal inhibitory concentration (IC50) is 193 nM on Melanocortin receptor 3 (read-out: IC50); “Not Active” in test [1]; “Not Active” in test [2]; “Not Active” in test [3]; “Not Active” in test [4]; “Not Active” in test [5]. Moreover, the inhibition constant Ki was 168 nM on Melanocortin receptor 3 (read-out: Ki); “Not Active” in test [1]; “Not Active” in test [2]; “Not Active” in test [3]; “Not Active” in test [4]; “Not Active” in test [5].
